Experimental data taken from article PMC8964227, “IP-Se-06, a Selenylated Imidazo[1,2-a]pyridine, Modulates Intracellular Redox State and Causes Akt/mTOR/HIF-1α and MAPK Signaling Inhibition, Promoting Antiproliferative Effect and Apoptosis in Glioblastoma Cells” (Oxidative Medicine and Cellular Longevity, 2022).

Experiments:
HT-22 cells = assay: MTT cytotoxicity assay, HT-22; type: cell-based, mouse; details: 72 h; for IC50: Mus musculus, HT-22, MTT
Method: (§1) Cell viability after treatments with selenylated imidazo[1,2-a]pyridines (IP-Se-01–IP-Se-10) was analyzed by quantitative colorimetric assay with MTT, according to Mosmann. IP-01, a prototype molecule without the addition of the selenium in its structure, was also tested. A172 and HT-22 cells were cultured in 96-well plates (10^4 cells/well). After confluence, cells were exposed to selenylated imidazo[1,2-a]pyridines (0.1, 1, 10, 100, and 1000 μM) for up to 72 h. After this phase, cell medium was removed and the cells were washed twice with PBS and incubated with MTT solution (0.5 mg/mL) for 2 h. The insoluble formazan was dissolved by adding DMSO (100 μL/well), and colorimetric determination of MTT reduction was measured at 550 nm in a multireader Infinite M200 Tecan. Three independent experiments were conducted, and the results are presented as IC50 (half maximal inhibitory concentration).

A172 cells [1] = assay: MTT cytotoxicity assay, A172; type: cell-based, human; details: for IC50: Homo sapiens, A 172, 72 h, MTT; for Selectivity Index (SI): IC50 in normal cell line (HT-22)/IC50 in A172
Method: as §1

Bcl-xL = assay: Western blotting Bcl-xL, A172 cells; type: cell-based, human; details: 1 μM, vs control
Method: (§2) After treatment with IP-Se-06 (1 μM) for 48 h, A172 cells were harvested with a lysis buffer. The lysates were collected, and the total proteins present in the lysates were quantified according to Lowry. Proteins present in the cell lysates (30 μg) were subjected to SDS-polyacrylamide gel electrophoresis, followed by electroblotting to polyvinylidene fluoride (PVDF) membranes. Nonspecific binding was blocked by incubating the membrane with skimmed milk in TBS buffer containing 0.1% Tween 20 (TBS-T) for 1 h. After primary antibody incubation, membranes were incubated with appropriate HRP-conjugated secondary antibodies for 1 h at room temperature. Immunodetection was performed using an enhanced chemiluminescence (ECL) detection kit. Protein bands were visualized using ChemiDoc MP Imaging System (Bio-Rad) and quantified by densitometry using the freeware ImageJ by Wayne Rasband from the National Institute of Health (USA).

ERK 1/2 = assay: Western blotting ERK 1/2, A172 cells; type: cell-based, human; details: 1 μM, 48 h
Method: as §2

[2] = test system: reduced glutathione (GSH); assay: Reduced glutathione level in A172 cells (o-phthalaldehyde); type: cell-based, human; details: 1 μM, 6 h, vs control
Method: (§3) To determine thioredoxin reductase (TrxR) activity and levels of reduced glutathione (GSH), glioblastoma cells were plated (4 × 10^5/well) into 12-well plates. At confluence, the cells were exposed at low concentration to IP-Se-06 (1 μM) for 6 h. After treatment time, cells were washed twice with PBS and resuspended with PBS/Triton 1%, centrifuged at 5000 g for 5 min and the supernatants were used for the determinations. All results were normalized by the protein content using the Bradford method.
GSH was determined according to Hissin and Hilf using the fluorescent probe o-phthalaldehyde, which binds to free -SH groups forming the GS-OPT complex. This complex can be determined by fluorescence excitation at 350 nm and emission at 420 nm. Determinations were expressed in μGSH/μg protein.

HIF-1α [3] = assay: Immunocytochemistry staining for HIF-1α localization; type: cell-based, human; details: 1 μM, 48 h
Method: A172 cells were treated with IP-Se-06 (1 μM) for 48 h, fixed with paraformaldehyde (4%) for 15 min and washed three times with PBS. The cells were then treated with blocking solution (0.5% BSA in PBS containing 0.3% of triton X-100) for 1 h at room temperature and incubated with rabbit polyclonal primary antibody HIF-1α (Cat. sc-10790, dilution 1 : 500) overnight at 4°C. Following this, the cells were washed three times with PBS and incubated with secondary antibody polyclonal goat anti-rabbit IgG antibody (Cat. AP132P, dilution 1 : 1000) for 1 h. The cell nuclei were stained with DAPI (3 μg/mL). The cell images were acquired from ten randomly chosen fields for each condition using an Olympus IX83 fluorescent microscope.

Akt = assay: Western blotting Akt, A172 cells; type: cell-based, human; details: 1 μM, 48 h, vs control
Method: as §2

A172 cells [4] = assay: Mitochondrial membrane potential (TMRE); type: cell-based, human; details: 1 μM, 6 h, vs control
Method: The loss of mitochondrial transmembrane potential was analyzed using the fluorescent probe TMRE according to as proposed by O'Reilly and collaborators, with modifications. A172 cells (4 × 10^5/well) were plated in 12-well plates. After confluence, the cells were treated with IP-Se-06 (1 μM) for 6 h. After treatment, the cells were washed once with HBSS and incubated with TMRE (1 μM) at 37°C for 20 min. Lastly, the cells were washed with HBSS and the fluorescence intensity was measured at excitation peak of 549 nm and emission of 575 nm.

A172 cells [5] = assay: Assessment of cell death (acridine orange plus propidium iodide); type: cell-based, human; details: 1 μM, 72 h, vs nontreated
Method: The cells were seeded (density of 2 × 10^5/well) into 6-well plates. After confluence, cells were treated with IP-Se-06 (1 μM) for 72 h. After this period, tumor cells were washed with PBS, trypsinized, centrifuged at 1500 g for 5 min, resuspended in PBS, and stained with a solution (6 μL, 1 : 1) of acridine orange (100 μg/mL) plus propidium iodide (100 μg/mL). This staining is used to analyze nuclear changes that characterize apoptotic and necrotic cells according to McGahon and collaborators. Cells (300/glass slide) from triplicates were observed under a fluorescence microscope (Olympus BX41) and categorized as viable, apoptotic, or necrotic.

A172 cells [6] = assay: Chromatin condensation detection (DAPI); type: cell-based, human; details: 1 μM, 72 h
Method: DAPI was used to analyze changes in the nuclear morphology of apoptotic cells after DNA damage. A172 cells (0.5 × 10^4/well) in 24-well plates were treated with IP-Se-06 (1 μM) for 72 h. The cells were then fixed with 4% paraformaldehyde for 10 min at 4°C. The fixed cells were washed three times with PBS (pH 7.4) and stained with DAPI (3 μg/mL) in PBS at 37°C for 10 min. Finally, the cells were washed in PBS, and nuclear morphology was photographed by a fluorescence Olympus IX83 microscope.

caspase-1 = assay: Western blotting caspase-1, A172 cells; type: cell-based, human; details: 1 μM, 48 h, vs control
Method: as §2

[7] = test system: thioredoxin reductase (TrxR); assay: Thioredoxin reductase activity in A172 cells (DTNB reduction); type: cell-based, human; details: 1 μM, 6 h, vs control
Method: as §3
TrxR activity was determined in A172 cells according to the method previously described by Arnér and collaborators, measuring the NADPH-dependent DTNB reduction to TNB (5-thio-2-nitrobenzoic acid) promoted by TrxR activity. The content of TNB derived from free thiols was measured at 412 nm. The enzyme activity was expressed as μmol·min^−1·mg protein^−1.

cytochrome c = assay: Western blotting cytochrome c (cytosolic fraction), A172 cells; type: cell-based, human; details: 1 μM, vs control
Method: as §2

A172 cells [8] = assay: Clonogenic assay; type: cell-based, human; details: 1 μM, 72 h
Method: To analyze the ability of the organoselenium compound to prevent cell proliferation and the progression of tumorigenesis, the methodology proposed by Franken and collaborators was used. In total, 500 cells per well were seeded in 6-well plates for 24 h. Before treatment with IP-Se-06, two groups were treated with the mitogen-activated protein kinase/ERK kinase inhibitor U0126 (Cell Signaling Technology, USA, Cat. #9903) at 10 μM for 1 h. A172 cells were exposed to IP-Se-06 (1 μM), while untreated cells were maintained as a control. After 72 h of incubation, the cells were washed with PBS, and fresh growth medium DMEM-F12 was added. At 7 days after treatment, colonies were fixed with 10% ethanol, stained with 0.5% crystal violet stain solution, manually counted, and photographed. Finally, cells were discolored with 1 mL of acetic acid 10% for 10 min, and the absorbance was measured at 590 nm in a multireader (Infinite M200 TECAN).

p53 = assay: Western blotting p53, A172 cells; type: cell-based, human; details: 1 μM, vs control
Method: as §2

p38 MAPK = assay: Western blotting p38, A172 cells; type: cell-based, human; details: 1 μM, 48 h, vs control
Method: as §2

HIF-1α [9] = assay: Western blotting HIF-1α, A172 cells; type: cell-based, human; details: 1 μM, 48 h, vs control
Method: as §2

NRF2 = assay: Western blotting NRF2, A172 cells; type: cell-based, human; details: 1 μM, vs control
Method: as §2

p-Akt = assay: Western blotting p-Akt, A172 cells; type: cell-based, human; details: 1 μM, 48 h, vs control
Method: as §2

[10] = test system: Ehrlich ascitic carcinoma; design: method as in PMID 33125183; details: 1 mg/kg, Ehrlich ascitic carcinoma-bearing mice; cited from earlier work
mTOR = assay: Western blotting mTOR, A172 cells; type: cell-based, human; details: 1 μM, 48 h, vs control
Method: as §2

NLRP3 = assay: Western blotting NLRP3, A172 cells; type: cell-based, human; details: 1 μM, 48 h, vs control
Method: as §2

γ-H2AX = assay: Western blotting γ-H2AX, A172 cells; type: cell-based, human; details: 1 μM, vs control
Method: as §2

p-p38 = assay: Western blotting p-p38, A172 cells; type: cell-based, human; details: 1 μM, 48 h, vs control
Method: as §2

A172 cells [11] = assay: Cell cycle analysis (PI, flow cytometry); type: cell-based, human; details: 1 μM, 72 h, vs untreated
Method: The PI/RNAse solution from the Immunostep® kit (Salamanca, Spain) was used to determine the DNA content of cells of the different phases of cell cycle by flow cytometry using the protocol proposed by the manufacturer. A172 cells were plated on 6-well plates at a density of 2 × 10^5/well until confluence and synchronization with nocodazole (30 ng/mL) for 14 h. The cells were treated with IP-Se-06 (1 μM) for 72 h, carefully washed with PBS, and fixed in cold ethanol (70%) overnight at -20°C. Finally, cells were washed again, resuspended in PI/RNAse solution, and incubated for 15 min at room temperature. Cells were analyzed using a BD FACSCanto II (BD Biosciences) flow cytometer. Data were processed using Flowing Software 2.5.1.

## c1ccc([Se]c2c(-c3ccccc3)nc3ncccn23)cc1 [IP-Se-09]
HT-22 cells
  IC50: 6 µM
A172 cells [1]
  IC50: 21.8 µM
  Selectivity Index (SI): 0.3

## Cc1ccn2c([Se]c3ccc(Cl)cc3)c(-c3ccccc3)nc2c1 [IP-Se-04]
HT-22 cells
  IC50: 306 µM
A172 cells [1]
  IC50: 43.6 µM
  Selectivity Index (SI): 7.0

## COc1ccc([Se]c2c(-c3ccccc3)nc3cc(C)ccn23)cc1 [IP-Se-03]
HT-22 cells
  IC50: 3.9 µM
A172 cells [1]
  IC50: 27.6 µM
  Selectivity Index (SI): 0.1

## CCCC[Se]c1c(-c2ccccc2)nc2cc(C)ccn12 [IP-Se-08]
HT-22 cells
  IC50: 31.2 µM
A172 cells [1]
  IC50: 20.9 µM
  Selectivity Index (SI): 1.5

## Cc1ccn2cc(-c3ccccc3)nc2c1 [IP-01]
HT-22 cells
  IC50: 153 µM
A172 cells [1]
  IC50: 76.3 µM
  Selectivity Index (SI): 2.0

## Cc1ccn2c([Se]c3cccc4ccccc34)c(-c3ccccc3)nc2c1 [IP-Se-05]
HT-22 cells
  IC50: 206 µM
A172 cells [1]
  IC50: 20.8 µM
  Selectivity Index (SI): 9.9

## COc1ccc(-c2nc3cc(C)ccn3c2[Se]c2ccccc2)cc1 [IP-Se-10]
HT-22 cells
  IC50: 30 µM
A172 cells [1]
  IC50: 18.8 µM
  Selectivity Index (SI): 1.6

## COc1ccccc1[Se]c1c(-c2ccccc2)nc2cc(C)ccn12 [IP-Se-06, 3-((2-methoxyphenyl)selanyl)-7-methyl-2-phenylimidazol[1,2-a]pyridine]
Bcl-xL
  levels of Bcl-xL: decreased
ERK 1/2; combination with U0126 10 μM 1 h, vs nontreated and U0126 alone
  ERK 1/2 levels: synergistic inhibition
ERK 1/2; vs control
  ERK 1/2 levels: important reduction
[2]
  levels of GSH: significantly decreased
HIF-1α [3]
  HIF-1α localization: seemed not to be translocated to the nucleus
Akt
  levels of Akt: significant reduction
A172 cells [4]
  ΔΨm, TMRE fluorescence intensity: reduced
A172 cells [5]
  apoptosis (acridine orange plus propidium iodide): able to induce apoptosis
A172 cells [6]
  nuclear morphology (DAPI): brightly stained and condensed nuclei
caspase-1
  levels of caspase-1: decreased
[7]
  TrxR intracellular activity: significantly decreased
Cytochrome c
  levels of cytochrome c: increased
HT-22 cells; in words
  cytotoxic activity on the mouse hippocampal cell line: no significant cytotoxic activity
HT-22 cells
  IC50: 65 µM
A172 cells [8]; concomitantly with U0126 10 μM 1 h, vs treatments alone
  number of cells in the colonies (absorbance 590 nm): even lower
A172 cells [8]; vs control
  number of cells in the colonies (absorbance 590 nm): decreased
A172 cells [8]; vs nontreated
  rate of colony formation: decreased
p53
  levels of p53: increased
p38 MAPK
  levels of p38: significantly decreased
HIF-1α [9]
  HIF-1α levels: significantly decreased
NRF2
  levels of NRF2 protein: decreased
p-Akt
  levels of p-Akt: significant reduction
[10]
  angiogenesis: inhibited angiogenesis
  tumor growth: growth inhibition of tumor
mTOR
  levels of mTOR: significant reduction
NLRP3
  levels of NLRP3: decreased
A172 cells [1]; A172, concentration used in further experiments
  approximate IC25 value: ~1 µM
A172 cells [1]
  IC50: 1.8 µM
  Selectivity Index (SI): 36.5
γ-H2AX
  levels of γ-H2AX: increased
p-p38
  phosphorylation of p38 (p-p38): significantly decreased
A172 cells [11]
  G2/M phase cell population: decrease
  S phase: no significant effect
  cell population in the G1 phase: increased
  cell proportion in sub-G1 peak: increased

## Cc1ccc([Se]c2c(-c3ccccc3)nc3cc(C)ccn23)cc1 [IP-Se-02]
HT-22 cells
  IC50: 144 µM
A172 cells [1]
  IC50: 73.2 µM
  Selectivity Index (SI): 1.9

## Cc1ccn2c([Se]c3cccs3)c(-c3ccccc3)nc2c1 [IP-Se-07]
HT-22 cells
  IC50: 10.7 µM
A172 cells [1]
  IC50: 27.9 µM
  Selectivity Index (SI): 0.4

## Cc1ccn2c([Se]c3ccccc3)c(-c3ccccc3)nc2c1 [IP-Se-01]
HT-22 cells
  IC50: 75.4 µM
A172 cells [1]
  IC50: 98.8 µM
  Selectivity Index (SI): 0.7
